The results in this text go back to patent publication US5179109A (priority 1988, dated 1993).

Structures are written as SMILES. Entries after “also recorded” stand apart in the source; their conditions may differ.

The test system of data set [1] is Swiss mice. In words: Simple rotary bar test (dose at which 50% of the animals drop). The class given is in vivo. As to conditions: Mus musculus, sc; Swiss mice, subcutaneous, dose at which 50% of the animals drop; read-out: ED50. As to the method: In this example, the properties of compounds 1 to 5 and 8 to 11 are tested on Swiss mice.
Different doses of the compounds to be tested are administered subcutaneously to the mice and the latter are then placed in batches of 10 on a rotary bar, being separated from one another by separating disks. This bar is made from scraped wood, has a diameter of 3 cm and is moved horizontally with a uniform circular movement about its axis at a speed of 10 rpm.
Determination takes place of the ED50, which is the dose at which 50% of the animals drop, the dose being expressed in mg/kg.

Data set [2] concerns site of PCP. In words: Affinity for the PCP site, competition with (^3 H)PCP on rat brain homogenates. The data set is classed as binding. As to conditions: rat brain homogenate, pH 7.7, 25° C., 1 nmole tritiated ligand.
For data set [3], the system named is site of TCP. In words: Affinity for the TCP site, competition with (^3 H)TCP on rat brain homogenates. As to conditions: rat brain homogenate, pH 7.7, 25° C., 1 nmole tritiated ligand; read-out: ^3 HTCP IC50. The class given is binding.
Data set [4] deals with synaptosomal striatal (^3 H)DA capture. The data set is described as follows: Inhibition test of the synaptosomal striatal sample (capture) of (^3 H)DA. As to conditions: for IC50: rat striatal synaptosomes, 5 nM (^3 H)DA, 5 min at 30° C., pH 7.4, read-out: ^3 HDA IC50; for ^3 HDA/^3 H-TCP: ratio of IC50. The class given is biochemical, Wistar rats. The method, then:
This test is carried out according to the method used by Vignon and Lazdunski operating in the following way. Wistar rats weighing 200 to 250 g are killed by cervical dislocation. Their brains are rapidly removed and the striae dissected on ice. The striae are then homogenized with a Teflon glass Potter homogenizer in 50 volumes of tris HCl 10 mM buffer containing 0.32M of sucrose at pH 7.4 and they are centrifuged at 1000 g for 10 min. The supernatants are further centrifuged at 10000 g for 20 min. The resulting deposits P2 containing the crude synaptosomes are used without supplementary purification.
The synaptosomes are balanced with the compound to be tested for 30 min at 30° C. in the Ringer medium (mM: 140 NaCl, 5 KCl, 2.6 CaCl2, 1.3 MgSO4, 10 tris-HCl, pH=7.4)+200 μM of pargyline. This is followed by the addition of (^3 H)DA labelled dopamine at a final concentration of 5 nM for 5 min at 30° C. and sampling is interrupted by filtration of the incubate (150 μl) on GF/B filters. The non-specific sample is measured at 4° C. in parallel incubations and is deducted from the total sample at 30° C. The IC50 is the compound concentration preventing 50% of the specific capture compared with the control in the absence of an inhibitor.

Data set [5] deals with cerebral cholinergic muscarinic receptor. The class given is binding, rat. As to conditions: for IC50: rat brain homogenate, read-out: ^3 HQNB IC50; for ^3 HQNB/^3 HTCP: ratio of IC50.
Data set [6] has as its target T1, receptor of the opiates (Rattus norvegicus, UniProt P33535).
T1 construct: variable concentrations of the tested compound and a rat brain homogenate; from tissue; host or cells: rat brain homogenate
The data set is described as follows: Competition test with ^3 H-DHM for the receptor of the opiates. The data set is classed as binding. As to conditions: for IC50: rat brain homogenate, read-out: ^3 HDHM IC50. As to the method:
In this test, a fixed concentration of ^3 H-DHM labelled morphine was incubated in the presence of variable concentrations of the tested compound and a rat brain homogenate. The concentration of the compound preventing the fixing of 50% of ^3 H-DHM (IC50) is a measure of the affinity of the compound for the receptor of the opiates. The latter also gives the results obtained with PCP and TCP, as well as the ratios H^3 DA/^3 H-TCP, ^3 HQNB/^3 H-TCP and ^3 HDHM/^3 HTCP obtained with the different tested compounds.

The subject of data set [7] is cortical and hippocampal neurons. The data set is described as follows: In vitro neuron culture survival after 2 months, count of neurons (Example 23). The data set is classed as cell-based, rat. As to conditions: for number of neurons which survived after 2 months culturing: single dose at start of third week, TCP 2.5 and 20, compound 9 and MK801 2.5 and 5 μmole/l, control 50 neurons/mm^2. The method, then: This example also illustrates the effect of the arylcyclohexylamines according to the invention on the in vitro neuron culture survival. As in example 21, cortical and hippocampal neuron cultures are prepared. At the start of the third culturing week, the cells are treated with a single dose of the compound to be tested and culturing is continued for two months. At the end of this period, the cells which were fixed and dyed to reveal the specific enolase of the neurons are subject to counts in order to determine the quantity of cells per surface unit.
The results obtained are given in FIG. 1, which is a histogram indicating the number of cells/mm^2 which survived after 2 months culturing.
The results are given for the control, i.e. for untreated cultures, cultures treated with 2.5 and 20 μmole/l of TCP, cultures treated by compound no. 9 at concentrations of 2.5 and 5 μmole/l and cultures treated by compound MK801 at concentrations of 2.5 and 5 μmole/l. Compound MK801, which is known to have a neuroprotection activity, is (+)-methyl-5-dihydro-10,11(5H)dibenzo(A,D) cyclohepteneimine-5,10 of formula: [drawing 38] From FIG. 1 it can be seen that the control cultures, after surviving for 2 months, on average contain 50 neurons/mm^2. The treated cultures, no matter what the compound and dose used, contain more than 500 neurons/mm^2.

In data set [8] the test system is Purkinje cells. In words: Cerebral aging in mice, histology of the cerebellum. The class given is in vivo. As to the method: (§1) This example illustrates the effect of arylcyclohexylamines on cerebral aging. No matter what the cause of the cerebral aging (vascular or degenerative), it leads to a neuronal loss at the cerebral cortex, the hippocampas and to a lesser extent the cerebellum. This cellular loss can be quantified by simple histological methods and evaluated on a larger scale by means of semi-automatic image analysis methods.
(§2) In this example 6 mice aged 23 months by intraperitonealy injecting 3 of them with 5 mg/kg of TCP in the physiological solute at the 23rd, 24th and 25th months and 3 other mice were intraperitonealy injected with the physiological solute only. At the 26th month, all the mice were sacrificed by intracardial perfusion of a 5% glutaraldehyde solution, the brains were cut up with the vibratone and the sections dyed by the NISSL method.
(§3) The results obtained are given in FIGS. 2 to 5, which are sections of the brain and the cerebellum of the treated mice and the untreated control mice.

Data set [9] deals with pyramidal cells Ca3 of Ammon's horn. In words: Cerebral aging in mice, histology of the hippocampus. The data set is classed as in vivo. As to conditions: 5 mg/kg intraperitoneal at 23rd, 24th and 25th months; 26th month. As to the method: as §1, §2, §3
The nature of data set [10]: Subcutaneous LD50 in the rat. As to conditions: in vivo, sc.

T1 sequence (P33535 whole entry): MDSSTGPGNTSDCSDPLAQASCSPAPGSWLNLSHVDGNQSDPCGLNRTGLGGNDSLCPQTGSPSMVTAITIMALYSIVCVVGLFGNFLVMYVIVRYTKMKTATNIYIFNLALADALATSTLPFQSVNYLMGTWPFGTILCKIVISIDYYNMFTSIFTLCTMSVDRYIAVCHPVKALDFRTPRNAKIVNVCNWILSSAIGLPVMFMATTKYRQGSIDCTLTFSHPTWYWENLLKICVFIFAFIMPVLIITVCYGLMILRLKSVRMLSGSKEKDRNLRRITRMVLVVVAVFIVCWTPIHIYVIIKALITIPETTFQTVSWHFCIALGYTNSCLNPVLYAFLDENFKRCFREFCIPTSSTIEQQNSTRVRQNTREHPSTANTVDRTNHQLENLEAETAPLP

On to `c1csc(C2(N3CCCCC3)CCCCC2)c1` [TCP, ((2-thienyl)-1 cyclohexyl)-N-piperidine, reference compound], for which the ED50 in data set [1] was 2.3 mg/kg. Further, the IC50 stood at 0.026 µM in data set [2]; 0.063 µM in data set [3]; 1.6 µM in [4]; 21 µM in data set [5]; 11 µM in [6]. Besides, the “^3 HDA/^3 H-TCP” value in [4] is listed as 25.39. Also, the “^3 HQNB/^3 HTCP” value in [5] worked out at 333. For the same compound, the “^3 HDHM/^3 HTCP” value in [6] (ratio of IC50) is reported as 74.6. The “number of neurons which survived after 2 months culturing” value in data set [7] is recorded as “more than 500 neurons/mm^2”. Moreover, the “rarefication of the Purkinje cells at the cerebellum versus untreated” value in [8] (5 mg/kg intraperitoneal at 23rd, 24th and 25th months, 26th month) is “much less significant”. Further, in [9], the “rarefaction of the pyramidal cells Ca3 of Ammon's horn versus untreated” value was “much less marked”.

Take `OCC1CCCN(C2(c3ccccc3)CCCCC2)C1` (stereo not drawn) [compound 4, [(hydroxymethyl-3piperidino)-1]-1phenyl-1 cyclohexane]: the ED50 in data set [1] was determined as 1.8 mg/kg. The same compound yielded an IC50 in data set [2] of 1 µM. Moreover, in data set [5], the IC50 turned out to be 100 µM and the “^3 HQNB/^3 HTCP” value is recorded as 100. Also, the LD50 in [10] is greater than 60 mg/kg.

On to `OCC1CCCN(C2(c3cccs3)CCCCC2)C1` (stereo not drawn) [compound 3, [(hydroxymethyl-3piperidino)-1]-1 (thienyl-2)-1 cyclohexane], for which the ED50 in [1] is 0.68 mg/kg. The IC50 worked out at 0.7 µM in data set [2] and 90 µM in data set [5]. The “^3 HQNB/^3 HTCP” value in [5] stood at 128. Besides, in data set [10], the LD50 was greater than 60 mg/kg.

Take `C[C@@H]1CCCC[C@]1(c1cccs1)N1CCCCC1` (relative stereo) [compound 9, c-methyl-2-r-(piperidino-1)-1 (thienyl-2)-1 cyclohexane]: the ED50 in [1] amounted to 3.5 mg/kg. Besides, the results for the IC50 in data set [4], in data set [5] and in [6] were 7.9 µM, 12 µM and 5 µM, respectively. In addition, the “^3 HDA/^3 H-TCP” value in data set [4] was determined as 415. Further, the “neuron survival, comparison in words” value in [7] (compound 9 at 5 μmole/liter, 2 months culturing) was “comparable result to that of TCP at 20 μmole/l and that of MK801 at 5 μmole/l; also recorded: effectiveness equal to that of the reference compound MK801”. In addition, the “number of neurons which survived after 2 months culturing” value in data set [7] was “more than 500 neurons/mm^2”. In [8] (cerebellum and hippocampus, compared with TCP), the “cerebral aging experiment repeated in place of TCP” value was “equivalent results were obtained”.
